Data reported in paper PMC6628362, “A New Strategy for Glioblastoma Treatment: In Vitro and In Vivo Preclinical Characterization of Si306, a Pyrazolo[3,4-d]Pyrimidine Dual Src/P-Glycoprotein Inhibitor” (Cancers, 2019).

Tested on: T98G
Assay: Cell viability, T98G (Table S1)
Assay type: cell-based
Conditions: Homo sapiens, 72 h
Procedure: 1. Cell Growth Inhibition by Dasatinib, Si306 and Pro-Si306
GB cell lines BT138, T98G and A172 were treated with Si306 and pro-Si306 at concentrations ranging from 1 to 100 µM, or with DMSO as a control. Cell viability was evaluated 72 h after treatment for T98G and A172 cell lines and after 24 h for BT-138. In table S1 the IC50 values are reported.
Table S1. Sensitivity of glioblastoma multiforme (GBM) cells to Si306 and pro-Si306 expressed as IC50 […]
Figure S1. Rho 123 accumulation in U87-TxR cells treated with increasing concentrations of TQ (A), Dex-VER (B), Si306 (C) and pro-Si306 (D).
(1 picture or pasted object on this page, not shown here)

Question: With `ClC(Cn1ncc2c(Nc3cccc(Br)c3)nc(SCCN3CCOCC3)nc21)c1ccccc1` (stereo not shown) [Si306] as the compound, how does the IC50 read?
Answer: 460 ± 20 nM
